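Five concentrations, 48 hours, 96-well plates. GI50 is the concentration that inhibits growth by half.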 The source made the active and inactive calls. No stated cut-off is given here; in the data, active = GI50 up to about 1.1 µM and inactive = higher. Bounds are passed on as bounds.

Assay in all cases: inhibition of tumour cell growth, NCI panel, 48 h
Test [1] relates to HCT-15.
In test [2] the test system is HT-29.
Test [3] deals with U-251.
Test [4] relates to MDA-MB-231.
For test [5], the system named is SNB-19.
Test [6] concerns A498.
Test [7] relates to SK-MEL-5.
In test [8] the test system is IGROV-1.
For test [9], the system named is LXFL 529.
In test [10] the test system is NCI/ADR-RES.
Test [11] deals with OVCAR-5.
The subject of test [12] is EKVX.
The test system of test [13] is ACHN.
Test [14] concerns DMS-273.
In test [15] the test system is NCI-H23.
For test [16], the system named is Hs-578T.
Test [17] relates to HCC 2998.
Test [18] deals with DMS-114.
The test system of test [19] is RPMI-8226.
The subject of test [20] is T47D.

For the molecule `CCOC(=O)Nc1nc2cc(Cn3cccc3)ccc2[nH]1`, the GI50 was 0.986 µM in [1]; 0.65 µM (active) in test [2]; 1.2 µM (inactive) in test [3]; 1.57 µM (inactive) in test [4]; 1.83 µM (inactive) in test [5]; 1.7 µM (inactive) in test [6]. Further, the GI50 was 0.51 µM (active) in test [7]; 1.85 µM (inactive) in test [8]; 4.16 µM (inactive) in test [9]; 0.387 µM (active) in [10]; 16 µM (inactive) in test [11]; 27.7 µM (inactive) in test [12]. The GI50 in test [13] is 5.78 µM (inactive); in test [14], 3.66 µM (inactive); in [15] it was 4.82 µM (inactive); in [16], 0.857 µM (active); in test [17] it was 2.47 µM (inactive); in test [18] it was 4.9 µM (inactive). In addition, in [19], the GI50 is 0.925 µM (active).
For `C=C(CN(C)C)C(=O)c1ccccc1`, the GI50 was 10.2 µM in [1]; 10.2 µM (inactive) in [2]; 18.7 µM (inactive) in [3]; 15.1 µM (inactive) in test [4]; 30.9 µM (inactive) in test [5]; 20.7 µM (inactive) in test [6]. In addition, the GI50 in [7] was 15.2 µM (inactive); in test [8] it was 18.8 µM (inactive); in test [9] it was 2.15 µM (inactive); in [10], 32 µM (inactive); in [11], 16.5 µM (inactive); in test [12], 21.8 µM (inactive). Besides, the GI50 in test [13] is 2.7 µM (inactive); in test [14], 13.7 µM (inactive); in [20], 2.25 µM (inactive); in [15], 19.4 µM (inactive); in test [16] it was 26.2 µM (inactive); in test [17], 18 µM (inactive). The GI50 in test [18] was 3.1 µM (inactive); in [19], 4.13 µM (inactive).
On to `O=C(CC(CC(=O)Oc1c(Br)cc(Br)cc1C(=O)O)C(=O)Oc1c(Br)cc(Br)cc1C(=O)O)Oc1c(Br)cc(Br)cc1C(=O)O`, for which the GI50 was 43.8 µM in test [1]; 49.2 µM (inactive) in [2]; 46.6 µM (inactive) in test [3]; 48.8 µM (inactive) in [5]; 81.5 µM (inactive) in [6]; > 100 µM (inactive) in test [7]. The GI50 in [8] is 29 µM (inactive); in test [9], 58.6 µM (inactive); in [11], 45.1 µM (inactive); in test [12], 44.9 µM (inactive); in [13], > 100 µM (inactive); in [14], > 100 µM (inactive). Moreover, the GI50 is 36.4 µM (inactive) in [15], 42.3 µM (inactive) in test [17], 31.8 µM (inactive) in test [18] and 33.7 µM (inactive) in test [19].
Take `CC(C)[C@@H](COC(C)(C)C)/N=C/N1CCc2c([nH]c3ccccc23)C1`: the GI50 was > 100 µM in test [1]; > 100 µM (inactive) in [2]; > 100 µM (inactive) in [3]; > 100 µM (inactive) in [5]; > 100 µM (inactive) in test [6]; > 100 µM (inactive) in test [7]. For the same molecule, the GI50 in test [8], in test [9], in [11], in [12], in test [13] and in [14] was > 100 µM (inactive) throughout. For the same molecule, the GI50 in [15] is > 100 µM (inactive); in [17] it was 80 µM (inactive); in test [18], > 100 µM (inactive); in test [19] it was > 100 µM (inactive).

The values above are taken from ChEMBL document CHEMBL1201862, “PubChem BioAssay data set” (2004).
